Laboratory results from patent US20220168296A1, “METHODS OF TREATING CANCER WITH FARNESYLTRANSFERASE INHIBITORS” (Kura Oncology, Inc., priority 2019, published 2022).

Legend:
Format in all cases: in vivo, human
Mycosis Fungoides (MF) = experiment: Phase II clinical study with tipifarnib in relapsed or refractory non-Hodgkin's lymphoma patients: MF subjects
Procedure: A Phase II clinical study with tipifarnib was performed in relapsed or refractory non-Hodgkin's lymphoma patients (N=93), wherein the types of non-Hodgkin's lymphoma included Diffuse Large B Cell Lymphoma (DLBCL) and Mycosis Fungoides (MF). Eligible patients received 300 mg tipifarnib as a single agent orally, twice a day (bid) on days 1-21 of 28 day cycles. Courses were repeated every 28 days in the absence of disease progression or unacceptable toxicity. Primary objective of assessing objective tumor response, in terms of Objective Response Rate (ORR), was determined using the International Workshop Criteria (IWC). […] CXCL12, CXCR4, CXCR7, and […]2, mRNA expression data were generated by RNASeq and expressed as RNA Seq RSEM.

Hodgkin Lymphoma (HL) = experiment: Phase II clinical study with tipifarnib in relapsed or refractory lymphoma patients: HL subjects; conditions: among 6 HL patients with pre-treatment tumor samples; 300 mg orally bid days 1-21 of 28 day cycles
Procedure: A Phase II clinical study with tipifarnib was performed in relapsed or refractory non-Hodgkin's lymphoma patients (N=93), wherein the types of non-Hodgkin's lymphoma included Diffuse Large B Cell Lymphoma (DLBCL) and Mycosis Fungoides (MF). Eligible patients received 300 mg tipifarnib as a single agent orally, twice a day (bid) on days 1-21 of 28 day cycles. Courses were repeated every 28 days in the absence of disease progression or unacceptable toxicity. Primary objective of assessing objective tumor response, in terms of Objective Response Rate (ORR), was determined using the International Workshop Criteria (IWC). […]

[1] = system: relapsed or refractory Diffuse Large B Cell Lymphoma (DLBCL); experiment: Phase II clinical study with tipifarnib in relapsed or refractory non-Hodgkin's lymphoma patients: DLBCL subjects; set-up: key to Best Response: a partial response (PR); Stable disease (SD) can be defined as any response not meeting CR, PR, HI, or PD criteria; Progressive disease (PD) can be defined as either >50% increase in lymph node or circulating blast % from baseline, or new appearance of circulating blasts (on at least 2 consecutive occasions)
Procedure: A Phase II clinical study with tipifarnib was performed in relapsed or refractory non-Hodgkin's lymphoma patients (N=93), wherein the types of non-Hodgkin's lymphoma included Diffuse Large B Cell Lymphoma (DLBCL) and Mycosis Fungoides (MF). Eligible patients received 300 mg tipifarnib as a single agent orally, twice a day (bid) on days 1-21 of 28 day cycles. Courses were repeated every 28 days in the absence of disease progression or unacceptable toxicity. Primary objective of assessing objective tumor response, in terms of Objective Response Rate (ORR), was determined using the International Workshop Criteria (IWC).
Exclusion Criteria for this clinical study include: (a) pregnant women; (b) breastfeeding women; (c) men or women of childbearing potential or their sexual partners who are unwilling to employ adequate contraception (condoms, diaphragm, birth control pills, injections, intrauterine device [IUD], surgical sterilization, subcutaneous implants, or abstinence, etc.); (d) life-threatening illness (unrelated to tumor); (e) ongoing radiation therapy or radiation therapy ≤3 weeks prior to study registration unless the acute side effects associated with such therapy are resolved; (f) therapy with myelosuppressive chemotherapy, cytotoxic chemotherapy, or biologic therapy ≤3 weeks (6 weeks for nitrosourea or mitomycin C) or corticosteroids ≤2 weeks, prior to starting R11577; patients may be on corticosteroids or tapering off them up until the day they start R11577 as long as it is clear that they are not having a tumor response to the steroids or that the steroids would confuse the interpretation of response to R11577; patients may be receiving stable (not increased within the last month) chronic doses of corticosteroids with a maximum dose of 20 mg of prednisone per day if they are being given for disorders other than lymphoma such as rheumatoid arthritis, polymyalgia rheumatica, adrenal insufficiency, or intractable symptoms of lymphoma; (g) peripheral neuropathy ≥grade 3; (h) serious non-malignant disease such as active infection or other condition which in the opinion of the investigator would compromise other protocol objectives; (i) presence of central nervous system (CNS) lymphoma; (j) other active malignancies; (k) once a patient begins FTI (tipifarnib) treatment, the addition of other cancer treatment will confound the assessment of efficacy and therefore is not allowed; this restriction precludes the addition of cytotoxic, immunologic agents, radiotherapy, or an increase in corticosteroid dose while the patient is in the treatment phase of this protocol; (l) known to be human immunodeficiency virus (HIV) positive; HIV testing is not required but should be done if clinically indicated; HIV patients are excluded because of concerns regarding excess risk of complications of immunosuppressive therapy regimens; and (m) known allergy to imidazole drugs such as clotrimazole, ketoconazole, miconazole, econazole, fenticonazole, sulconazole, tioconazole, or terconazole.
Pre-treatment tumor samples and best response data were obtained from 20 patients (N=20): 6 Diffuse Large B Cell Lymphoma (DLBCL), 6 Hodgkin Lymphoma (HL), 4 Follicular Lymphoma (FL), 1 Marginal Zone B Cell Lymphoma, 1 PTCL NOS, and 2 Mycosis Fungoides (MF). Within these 20 patients, the following objective responses were identified: 3 PRs and 1 SD were reported in DLBCL, 1PR in HL, and 2PRs in MF.
CXCL12, CXCR4, CXCR7, and PRICLKE2, mRNA expression data were generated by RNASeq and expressed as RNA Seq RSEM.

[2] = among 6 DLBCL patients with pre-treatment tumor samples, 300 mg orally bid days 1-21 of 28 day cycles
[3] = high PRICKLE2 and CXCL12/CXCR4 ratio greater than about 1/10 (about 0.10), out of 6 subjects (FIG. 2B)
[4] = low PRICKLE2 and lower CXCL12/CXCR4 ratio, cut-off about 1/10 (about 0.10), out of 6 subjects (FIG. 2B)
[5] = low PRICKLE2 and lower CXCL12/CXCR4 ratio, cut-off about 3/20 (about 0.15), out of 6 subjects (FIG. 2B)
[6] = low pre-treatment CXCL12 expression levels, out of 6 subjects (FIG. 1A)
[7] = low pre-treatment PRICKLE2 expression levels, out of 6 subjects (FIG. 2A)

In the case of `Cn1cncc1[C@@](N)(c1ccc(Cl)cc1)c1ccc2c(c1)c(-c1cccc(Cl)c1)cc(=O)n2C` [tipifarnib], the “Number of PR responses” value (Mycosis Fungoides (MF); MF patients having high pre-treatment CXCL12 expression levels, out of 2 subjects) is reported as 2, the “Number of PR responses” value (Mycosis Fungoides (MF); MF, low pre-treatment CXCL12 expression levels, out of 2 subjects) is reported as 0 and the “Number of PRs (objective responses)” value (Mycosis Fungoides (MF); among 2 MF patients with pre-treatment tumor samples, 300 mg orally bid days 1-21 of 28 day cycles) is reported as 2. For the same compound, the “Number of PRs” value (Mycosis Fungoides (MF); two MF subjects with CXCL12/CXCR4 expression ratio of 0.6 and 2.0, out of 2 subjects) was 2, the “Number of PR (objective responses)” value (Hodgkin Lymphoma (HL)) was 1 and the “Best Response” value ([1]; DLBCL subject with pre-treatment tumor CXCL12/CXCR7 ratio 1.4, 300 mg orally bid days 1-21 of 28 day cycles) was “PD”. The “Best Response” value ([1]; DLBCL subject with pre-treatment tumor CXCL12/CXCR7 ratio 3.5, 300 mg orally bid days 1-21 of 28 day cycles) was “PD”, the “Best Response” value ([1]; DLBCL subject with pre-treatment tumor CXCL12/CXCR7 ratio 3.7, 300 mg orally bid days 1-21 of 28 day cycles) was “SD” and the “Best Response” value ([1]; DLBCL subject with pre-treatment tumor CXCL12/CXCR7 ratio 6.6, 300 mg orally bid days 1-21 of 28 day cycles) was “PR”. For the same compound, the “Best Response” value ([1]; DLBCL subject with pre-treatment tumor CXCL12/CXCR7 ratio 30.8, 300 mg orally bid days 1-21 of 28 day cycles) was “PR”, the “Best Response” value ([1]; DLBCL subject with pre-treatment tumor CXCL12/CXCR7 ratio 66.8, 300 mg orally bid days 1-21 of 28 day cycles) was “PR” and the “Best Response” value ([1]; Patient 35, DLBCL, pre-treatment tumor CXCL12/CXCR4 ratio 1.280, 300 mg orally bid days 1-21 of 28 day cycles) was “PR”. The “Best Response” value ([1]; Patient 38, DLBCL, pre-treatment tumor CXCL12/CXCR4 ratio 0.505, 300 mg orally bid days 1-21 of 28 day cycles) was “PR”, the “Best Response” value ([1]; Patient 39, DLBCL, pre-treatment tumor CXCL12/CXCR4 ratio 0.179, 300 mg orally bid days 1-21 of 28 day cycles) was “PR” and the “Best Response” value ([1]; Patient 42, DLBCL, pre-treatment tumor CXCL12/CXCR4 ratio 0.122, 300 mg orally bid days 1-21 of 28 day cycles) was “SD”. The “Best Response” value ([1]; Patient 43, DLBCL, pre-treatment tumor CXCL12/CXCR4 ratio 0.050, 300 mg orally bid days 1-21 of 28 day cycles) was “PD”, the “Best Response” value ([1]; Patient 44, DLBCL, pre-treatment tumor CXCL12/CXCR4 ratio 0.012, 300 mg orally bid days 1-21 of 28 day cycles) was “PD” and the “Number of PRs (objective responses)” value [1, 2] was 3. The “Number of SD (objective responses)” value [1, 2] was 1, the “Number of PR responses” value [1, 3] was 3 and the “Number of SD responses” value [1, 3] was 1. The “Number of PR responses” value ([1]; high PRICKLE2 and CXCL12/CXCR4 ratio greater than about 3/20 (about 0.15), out of 6 subjects (FIG. 2B)) was 3, the “Number of PR responses” value ([1]; high pre-treatment CXCL12 expression levels, out of 6 subjects (FIG. 1A)) was 3 and the “Number of PR responses” value ([1]; high pre-treatment PRICKLE2 expression levels, out of 6 subjects (FIG. 2A)) was 3. For the same compound, the “Number of PD responses” value [1, 4] was 2, the “Number of PR responses” value [1, 4] was 0 and the “Number of SD responses” value [1, 4] was 0. For the same compound, the “Number of PD responses” value [1, 5] was 2, the “Number of PR responses” value [1, 5] was 0 and the “Number of SD responses” value [1, 5] was 1. For the same compound, the “Number of PD responses” value [1, 6] was 2, the “Number of PR responses” value [1, 6] was 0 and the “Number of SD responses” value [1, 6] was 1. The “Number of PD responses” value [1, 7] was 2, the “Number of PR responses” value [1, 7] was 0 and the “Number of SD responses” value [1, 7] was 1.
